Measurements published in patent publication US9546164B2 (GENENTECH, INC., priority 2013, dated 2017).
pIC50: −log10 of the molar value. Where a name gives a salt, the structure may show the parent alone.

target: hNav1.7 (Homo sapiens (Human), UniProt Q15858); assay: Tritiated sulfonamide competitive binding to membranes from cells expressing hNav1.7 and the β1 subunit; details: read-out: Ligand Binding Assay; 100 pM [3H]compound, membranes with hNav1.7 and β1 subunit, 18 h, room temperature;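 note: Filter-bound radioactivity counted by liquid scintillation, nonspecific binding defined with excess unlabelled ligand, IC50 fitted to percent inhibition of specific binding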
Sequence (Q15858 other isoform, or with tags, fused parts or gaps): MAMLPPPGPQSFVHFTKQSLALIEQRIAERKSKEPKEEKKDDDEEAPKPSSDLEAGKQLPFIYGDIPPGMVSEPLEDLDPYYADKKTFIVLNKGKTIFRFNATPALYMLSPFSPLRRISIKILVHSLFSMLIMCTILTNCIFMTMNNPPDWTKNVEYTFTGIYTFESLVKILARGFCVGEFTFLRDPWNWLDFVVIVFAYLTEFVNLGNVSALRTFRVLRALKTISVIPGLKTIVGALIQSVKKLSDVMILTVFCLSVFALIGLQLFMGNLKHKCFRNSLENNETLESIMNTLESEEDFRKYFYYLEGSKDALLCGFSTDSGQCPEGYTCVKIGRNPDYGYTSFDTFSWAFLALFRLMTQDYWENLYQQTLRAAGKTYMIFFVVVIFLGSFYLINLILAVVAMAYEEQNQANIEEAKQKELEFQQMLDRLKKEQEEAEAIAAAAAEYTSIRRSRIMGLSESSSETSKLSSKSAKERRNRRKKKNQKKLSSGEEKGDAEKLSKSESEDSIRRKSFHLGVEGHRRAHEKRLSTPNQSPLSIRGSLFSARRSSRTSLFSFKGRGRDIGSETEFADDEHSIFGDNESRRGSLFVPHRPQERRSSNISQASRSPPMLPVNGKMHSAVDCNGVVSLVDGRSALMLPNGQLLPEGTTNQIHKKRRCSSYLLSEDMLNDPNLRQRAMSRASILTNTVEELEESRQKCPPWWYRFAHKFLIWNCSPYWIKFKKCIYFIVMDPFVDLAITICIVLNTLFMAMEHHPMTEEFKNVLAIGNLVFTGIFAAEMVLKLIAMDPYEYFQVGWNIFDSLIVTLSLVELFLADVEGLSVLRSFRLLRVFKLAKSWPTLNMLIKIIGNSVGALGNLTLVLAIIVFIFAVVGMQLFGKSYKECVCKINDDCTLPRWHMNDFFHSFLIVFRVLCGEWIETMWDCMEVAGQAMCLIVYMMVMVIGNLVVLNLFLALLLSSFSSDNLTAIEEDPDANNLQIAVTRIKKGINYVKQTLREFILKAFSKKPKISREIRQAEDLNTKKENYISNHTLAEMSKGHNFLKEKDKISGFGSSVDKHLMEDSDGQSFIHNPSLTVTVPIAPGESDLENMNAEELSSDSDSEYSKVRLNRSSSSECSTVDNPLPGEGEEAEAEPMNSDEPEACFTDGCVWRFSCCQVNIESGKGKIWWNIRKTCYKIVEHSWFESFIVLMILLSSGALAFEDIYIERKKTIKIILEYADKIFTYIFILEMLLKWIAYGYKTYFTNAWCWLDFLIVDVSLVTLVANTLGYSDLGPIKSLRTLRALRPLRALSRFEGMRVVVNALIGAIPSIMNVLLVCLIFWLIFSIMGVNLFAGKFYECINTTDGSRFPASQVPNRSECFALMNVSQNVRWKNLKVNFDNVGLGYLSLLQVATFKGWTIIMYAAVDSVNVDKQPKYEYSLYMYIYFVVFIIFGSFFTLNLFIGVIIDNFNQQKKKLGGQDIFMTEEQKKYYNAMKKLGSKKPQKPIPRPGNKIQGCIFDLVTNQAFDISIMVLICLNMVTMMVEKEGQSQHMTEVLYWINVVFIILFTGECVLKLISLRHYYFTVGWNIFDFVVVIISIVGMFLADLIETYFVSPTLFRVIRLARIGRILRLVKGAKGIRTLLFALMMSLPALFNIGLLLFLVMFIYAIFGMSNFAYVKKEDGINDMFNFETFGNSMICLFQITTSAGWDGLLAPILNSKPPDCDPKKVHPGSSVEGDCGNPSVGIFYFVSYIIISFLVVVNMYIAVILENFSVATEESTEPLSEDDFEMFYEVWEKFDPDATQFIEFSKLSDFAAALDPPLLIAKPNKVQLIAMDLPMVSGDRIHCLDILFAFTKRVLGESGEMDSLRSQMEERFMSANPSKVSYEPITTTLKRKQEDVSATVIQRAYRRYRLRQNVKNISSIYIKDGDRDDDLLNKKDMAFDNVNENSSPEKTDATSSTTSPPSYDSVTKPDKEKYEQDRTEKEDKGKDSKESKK
Sequence (Q07699 19-218 partner): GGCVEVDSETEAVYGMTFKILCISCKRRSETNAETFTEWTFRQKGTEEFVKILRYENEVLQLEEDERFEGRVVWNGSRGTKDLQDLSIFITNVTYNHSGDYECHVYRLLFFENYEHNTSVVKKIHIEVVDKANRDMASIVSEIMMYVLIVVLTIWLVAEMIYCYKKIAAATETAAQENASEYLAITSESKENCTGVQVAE
Method: Tritiated Sulfonamide Binding to Membranes
Preparation of membranes containing recombinantly expressed sodium channels: Frozen recombinant cell pellets were thawed on ice and diluted to 4 times the cell pellet weight with ice cold 50 mM TrisHCl, pH 7.4 buffer. The cell suspensions were homogenized on ice using a motorized glass douncehomogeniser. Homogenates were further diluted 8.4 times with ice cold 50 mM TrisHCl, pH 7.4 buffer and then centrifuged at 200×g at 4° C. for 15 min. The supersatants were collected and centrifuged at 10000×g at 4° C. for 50 min. The pellets were then re-suspended in 100 mMNaCl, 20 mM TrisHCl, pH. 7.4 buffer containing 1% v/v protease inhibitors (Calbiochem) and re-homogenized on ice. The homogenized membranes were then processed through a syringe equipped with a 26 gauge needle. Protein concentrations were determined by Bradford Assay and the membranes were stored at −80° C.
Radioligand Binding Studies: Saturation experiments. A representative compound of formula (I) having a methyl group was tritiated. Three tritiums were incorporated in place of methyl hydrogens to generate [^3H]compound. Binding of this radioligand was preformed in 5 mL borosilicate glass test tubes at room temperature. Binding was initiated by adding membranes to increasing concentrations of [^3H]compound in 100 mM NaCl, 20 mM TrisHCl, pH 7.4 buffer containing 0.01% w/v bovine serum albumin (BSA) for 18 h. Non-specific binding was determined in the presence of 1 μM unlabelled compound. After 18 h, the reactants were filtered through GF/C glass fiber filters presoaked in 0.5% w/v polyethylene imine. Filters were washed with 15 mL ice cold 100 mM NaCl, 20 mM TrisHCl, pH7.4 buffer containing 0.25% BSA to separate bound from free ligand. [^3H]compound bound to filters was quantified by liquid scintillation counting.
Competitive binding experiments: Binding reactions were preformed its 96-well polypropylene plates at room temperature for 18 h. In 360 μL, membranes were incubated with 100 pM [^3H]compound and increasing concentrations of Test Compound. Non-specific binding was defined in the presence of 1 μM unlabelled compound. Reactions were transferred and filtered through 96-well glass fiber/C filter plates presoaked with 0.5% polyethylene imine. The filtered reactions were washed 5 times with 200 μL ice cold butter containing 0.25% BSA. Bound radioactivity was determined by liquid scintillation counting.
Data Analysis: For saturation experiments, non-specific binding was subtracted from total binding to provide specific binding and these values were recalculated in terms of pmol ligand bound per mg protein. Saturation curves were constructed and dissociation constants were calculated using the single site ligand binding model: Beq=(Bmax*X)/(X+KD), where Beq is the amount of ligand bound at equilibrium, Bmax is the maximum receptor density, Kd is the dissociation constant for the ligand, and X is the tree ligand concentration. For competition studies percent inhibition was determined and IC50 values were calculated using a 4 parameter logistic model (% inhibition=(A+((B−A)/(1+((x/C)^D)))) using XLfit, where A and B are the maximal and minimum inhibition respectively, C is the IC50 concentration and D is the (Hill) slope.

| Structure (SMILES) | pIC50 |
| --- | --- |
| O=C(NS(=O)(=O)N1CCC1)c1cc(C2CC2)c(OC[C@H]2CCCN(Cc3ccc(F)cc3Cl)C2)cc1F [Example 339, (S)—N-(azetidin-1-ylsulfonyl)-4-((1-(2-chloro-4-fluorobenzyl)piperidin-3-yl)methoxy)-5-cyclopropyl-2-fluorobenzamide, trifluoroacetic acid salt] | 7.78 |
| O=C(NS(=O)(=O)C1CC1)c1cc(C2CC2)c(OC[C@H]2CCCN(Cc3ccc(F)cc3Cl)C2)cc1F [Example 340, (S)-4-((1-(2-chloro-4-fluorobenzyl)piperidin-3-yl)methoxy)-5-cyclopropyl-N-(cyclopropylsulfonyl)-2-fluorobenzamide, trifluoroacetic acid salt] | 8.33 |
| C[C@@H]1CC[C@@H](COc2cc(F)c(C(=O)NS(C)(=O)=O)cc2C2CC2)CN1[C@H](C)c1cc(Cl)cc(Cl)c1 [Example 343, 5-cyclopropyl-4-(((3R,6R)-1-((R)-1-(3,5-dichlorophenyl)ethyl)-6-methylpiperidin-3-yl)methoxy)-2-fluoro-N-(methylsulfonyl)benzamide, trifluoroacetic acid salt] | 8.08 |
| CCS(=O)(=O)NC(=O)c1cc(C2CC2)c(OC[C@@H]2CC[C@@H](C)N([C@@H](C)c3cc(Cl)cc(Cl)c3)C2)cc1F [Example 344, trifluoroacetic acid salt] | 8.16 |
| O=C(NS(=O)(=O)C1CC1)c1cc(C2CC2)c(OCC2(F)CCN(Cc3cc(C(F)(F)F)cc(Cl)c3F)CC2)cc1F [Example 347, 4-((1-(3-chloro-2-fluoro-5-(trifluoromethyl)benzyl)-4-fluoropiperidin-4-yl)methoxy)-5-cyclopropyl-N-(cyclopropylsulfonyl)-2-fluorobenzamide, trifluoroacetic acid salt] | 8.20 |
| C[C@@H](c1cc(Cl)cc(Cl)c1)N1CCC(F)(COc2cc(F)c(C(=O)NS(=O)(=O)C3CC3)cc2C2CC2)CC1 [Example 350] | 8.35 |

Further molecules by rising pIC50, results first:

| pIC50 | Structure (SMILES) |
| --- | --- |
| 8.11 | CCS(=O)(=O)NC(=O)c1cc(C2CC2)c(OC[C@@H]2CC[C@@H](C)N([C@H](C)c3cc(Cl)cc(Cl)c3)C2)cc1F [Example 345, 5-cyclopropyl-4-(((3R,6R)-1-((R)-1-(3,5-dichlorophenyl)ethyl)-6-methylpiperidin-3-yl)methoxy)-N-(ethylsulfonyl-2-fluorobenzamide, trifluoroacetic acid salt] |
| 8.28 | C[C@H](c1cc(Cl)cc(Cl)c1)N1CCC(F)(COc2cc(F)c(C(=O)NS(C)(=O)=O)cc2C2CC2)CC1 [Example 351, (R)-5-cyclopropyl-4-((1-(1-(3,5-dichlorophenyl)ethyl)-4-fluoropiperidin-4-yl)methoxy)-2-fluoro-N-(methylsulfonyl)benzamide, trifluoroacetic acid] |
| 8.31 | CS(=O)(=O)NC(=O)c1cc(C2CC2)c(OC[C@H]2CCCN(Cc3cc(Cl)cc(Cl)c3)C2)cc1F [Example 336, (S)-5-cyclopropyl-4-((1-(3,5-dichlorobenzyl)piperidin-3-yl)methoxy)-2-fluoro-N-(methylsulfonyl)benzamide] |
| 8.36 | C[C@@H]1CC[C@@H](COc2cc(F)c(C(=O)NS(C)(=O)=O)cc2C2CC2)CN1Cc1cc(Cl)cc(Cl)c1 [Example 341, 5-cyclopropyl-4-(((3R,6R)-1-(3,5-dichlorobenzyl)-6-methylpiperidin-3-yl)methoxy)-2-fluoro-N-(methylsulfonyl)benzamide, trifluoroacetic acid salt] |
| 8.40 | C[C@@H](c1cc(Cl)cc(Cl)c1)N1CCC(F)(COc2cc(F)c(C(=O)NS(C)(=O)=O)cc2C2CC2)CC1 [Example 349, (S)-5-cyclopropyl-4-((1-(1-(3,5-dichlorophenyl)ethyl)-4-fluoropiperidin-4-yl)methoxy)-2-fluoro-N-(methylsulfonyl)benzamide, trifluoroacetic acid salt] |
